The values below come from patent publication US20150259344A1, “IMIDAZOLE DERIVATIVE” (DAINIPPON SUMITOMO PHARMA CO., LTD., priority 2012, published 2015).

T1 sequence (P36544 23-502): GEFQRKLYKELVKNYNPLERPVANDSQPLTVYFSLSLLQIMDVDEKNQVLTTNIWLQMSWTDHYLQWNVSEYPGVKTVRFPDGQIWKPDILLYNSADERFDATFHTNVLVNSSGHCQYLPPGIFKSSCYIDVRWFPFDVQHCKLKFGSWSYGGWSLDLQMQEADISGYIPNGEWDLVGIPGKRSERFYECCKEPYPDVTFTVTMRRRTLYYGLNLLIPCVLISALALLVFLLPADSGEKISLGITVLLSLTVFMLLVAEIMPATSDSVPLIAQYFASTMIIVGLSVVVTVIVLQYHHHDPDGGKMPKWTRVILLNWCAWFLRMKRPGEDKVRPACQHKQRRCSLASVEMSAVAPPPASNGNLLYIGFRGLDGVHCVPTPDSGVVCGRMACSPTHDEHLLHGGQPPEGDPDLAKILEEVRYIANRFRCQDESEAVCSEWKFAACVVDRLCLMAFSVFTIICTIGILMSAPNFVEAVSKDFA

One test concerns the target T1, human α7 nAChR (Homo sapiens, UniProt P36544).
T1 construct: expressed in transfected cells
Briefly: Evaluation of PAM activity with human α7 nACh receptor stably expressing cells (aequorin luminescence, FDSS7000). Type of test: cell-based. The note with it: 1 μM test compound (values marked *, footnote of Table 25); ACh at EC20; ratio of RLU (Max-Min) to control wells; read-out: α7PAM (%) @1 μM. On the procedure: Evaluation of PAM activity with human α7 nACh receptor stably expressing cells
(1) Human α7 nAChR stably expressing cells
Human α7 nAChR stably expressing cells were generated and cultured.
Thus, the cells were subcultured.
Seven days after subculturing, the cells were treated with TrypLE Express to collect them when they were about 80% confluent.
On the next day after seeding, Viviren (cat#E649X, Promega, Madison, Wis., USA) was added to the medium so that the final concentration could be 4 μM (15 μL/well). The plates were centrifuged and then placed in the dark for 4 hours at room temperature.
(2) Preparation of the Test Samples
Each of the test compounds was dissolved in DMSO to prepare each test sample at a concentration of 1000-fold the final concentration. To the solution was added Hanks/20 mM HEPES/0.2% BSA (cat#A3803, Sigma, St. Louis, Mo., USA), and the concentration was adjusted to 6-fold the final concentration.
(3) Evaluation of PAM Activity
FDSS7000 (Hamamatsu Photonics) was used to detect the luminescence signal evoked by α7 nAChR stimulation. The cells and a luminescent substrate were put on a plate, and the test sample was added thereto. […] The ratio of the RLU (Max-Min) of the test-compound-containing wells to that of the control wells was defined as PAM activity.
For `O=C(NCC1CCCCC1)N1CCC(n2cnc(-c3c(F)cccc3F)c2)CC1` [Example 11], the activity at 1 µM was 116%.
Same read-out and setting: as for `COC1CCC(NC(=O)N2CCC(n3cnc(-c4ccc(F)cc4)c3)CC2)CC1` (stereo not shown) [Example 33], the figure is 126%; as for `O=C(NC1CCC2(CC1)CC2)N1CCC(n2cnc(-c3cccc(F)c3)c2)CC1` [Example 46], 104%.

The test is the same for the next values; noted with them: 10 μM test compound; ACh at EC20; ratio of RLU (Max-Min) to control wells.
On to `CC(C)(F)C(=O)N[C@H]1CC[C@@H](n2cnc(-c3ccc(F)cc3)c2)CC1` [Example 8, 2-Fluoro-N-{cis-4-[4-(4-fluorophenyl)-1H-imidazol-1-yl]cyclohexyl}-2-methylpropanamide], for which the “α7PAM (%) @10 μM” value is 476%.

Staying with this test, now noted: 10 μM test compound; ACh at EC20; ratio of RLU (Max-Min) to control wells; read-out: α7PAM (%) @10 μM.
As to `O=C(NC1CC2CCC1C2)N1CCC(n2cnc(-c3cccc(F)c3)c2)CC1` (stereo not shown) [Example 2, N-(Bicyclo[2.2.1]hept-2-yl)-4-[4-(3-fluorophenyl)-1H-imidazol-1-yl]piperidine-1-carboxamide], the activity at 10 µM is 117%.
On the same count and under the same terms, as for `O=C(N[C@H]1CC[C@H](C(F)(F)F)CC1)N1CCC(n2cnc(-c3cccc(F)c3)c2)CC1` [Example 3, 4-[4-(3-Fluorophenyl)-1H-imidazol-1-yl]-N-[trans-4-(trifluoromethyl)cyclohexyl]piperidine-1-carboxamide], the figure is 493%; as for `CO[C@H]1CC[C@H](NC(=O)N2CCC(n3cnc(-c4ccc(C(F)(F)F)cc4)c3)CC2)CC1` [Example 4, N-(trans-4-Methoxycyclohexyl)-4-{4-[4-(trifluoromethyl)phenyl]-1H-imidazol-1-yl}piperidine-1-carboxamide], 220%.
Same read-out and setting: as for `O=C(C1CCC(F)(F)CC1)N1CCC(n2cnc(-c3ccccc3)c2)CC1` [Example 6, [4-(4-Phenyl-1H-imidazol-1-yl)piperidin-1-yl](4,4-difluorocyclohexyl)methanone], the figure is 292%; as for `N#Cc1c(-c2ccccc2)ncn1C1CCN(C(=O)C2CCC(F)(F)CC2)CC1` [Example 7, 1-{1-[(4,4-Difluorocyclohexyl)carbonyl]piperidin-4-yl}-4-phenyl-1H-imidazole-5-carbonitrile], 644%.
As to `O=C(NC1CCCCC1)[C@H]1CC[C@@H](n2cnc(-c3ccccc3)c2)CC1` [Example 9, cis-N-Cyclohexyl-4-(4-phenyl-1H-imidazol-1-yl)cyclohexanecarboxamide], the activity at 10 µM worked out at 121%.
As to `O=C(NC1CCCCC1)N1CCC(n2cnc(-c3c(F)cccc3F)c2)CC1` [Example 10], the activity at 10 µM was 597%.
Same read-out and setting: as for `O=C(Nc1ccccc1F)N1CCC(n2cnc(-c3c(F)cccc3F)c2)CC1` [Example 12], the figure is 283%; as for `Cc1ccccc1-c1cn(C2CCN(C(=O)Nc3ccccc3F)CC2)cn1` [Example 13], 161%.
Same read-out and setting: as for `Cc1ccccc1-c1cn(C2CCN(C(=O)NC3CCCCC3)CC2)cn1` [Example 14], the figure is 351%; as for `O=C(NC1CCCCC1)N1CCC(n2cnc(-c3ccc(F)cc3)c2)CC1` [Example 15], 596%.
In the case of `O=C(NC1CCCCC1)N1CCC(n2cnc(-c3ccc(Cl)cc3)c2)CC1` [Example 20], the activity at 10 µM was determined as 656%.
The same measure, in the same setting: as for `O=C(Nc1ccccc1F)N1CCC(n2cnc(-c3ccc(Cl)cc3)c2)CC1` [Example 21], the figure is 291%.
`O=C(NC1CCCCC1)N1CCC(n2cnc(-c3ccc(C(F)(F)F)cc3)c2)CC1` [Example 23]: the activity at 10 µM came out at 209%.
On the same count and under the same terms, as for `O=C(Nc1ccccc1F)N1CCC(n2cnc(-c3ccc(C(F)(F)F)cc3)c2)CC1` [Example 24], the figure is 228%; as for `O=C(NC1CCCCC1)N1CCC(n2cnc(-c3ccc(F)c(F)c3)c2)CC1` [Example 26], 563%; as for `O=C(Nc1ccccc1F)N1CCC(n2cnc(-c3ccc(F)c(F)c3)c2)CC1` [Example 27], 139%.
The same measure, in the same setting: as for `O=C(NC1CCC(F)(F)CC1)N1CCC(n2cnc(-c3ccc(F)c(F)c3)c2)CC1` [Example 28], the figure is 798%.
Still for that read-out and setting: as for `O=C(NC1CCOCC1)N1CCC(n2cnc(-c3ccc(C(F)(F)F)cc3)c2)CC1` [Example 29], the figure is 378%; as for `O=C(NC1CCCC1)N1CCC(n2cnc(-c3cccc(F)c3)c2)CC1` [Example 30], 319%.
For `CC1(NC(=O)N2CCC(n3cnc(-c4cccc(F)c4)c3)CC2)CCC1` [Example 31], the activity at 10 µM came out at 300%.
Still for that read-out and setting: as for `O=C(NC1CCC(F)(F)CC1)N1CCC(n2cnc(-c3cccc(F)c3)c2)CC1` [Example 32], the figure is 993%; as for `O=C(NC1CCCCC1)N1CCC(n2cnc(-c3cc(F)cc(F)c3)c2)CC1` [Example 34], 596%.
As for `O=C(NC1CCC(F)(F)CC1)N1CCC(n2cnc(-c3cc(F)cc(F)c3)c2)CC1` [Example 35], the activity at 10 µM was 878%.
The same measure, in the same setting: as for `O=C(NC1CCCC1)N1CCC(n2cnc(-c3ccccc3)c2)CC1` [Example 36], the figure is 193%.
Consider `O=C(NC1CCCCC1)N1CCC(n2cnc(-c3ccccc3)c2)CC1` [Example 37], for which the activity at 10 µM stood at 366%.
Consider `O=C(NC1CC2CCC1C2)N1CCC(n2cnc(-c3ccccc3)c2)CC1` (stereo not shown) [Example 38], for which the activity at 10 µM turned out to be 311%.
Same read-out and setting: as for `O=C(NC1CCC(F)(F)CC1)N1CCC(n2cnc(-c3ccccc3)c2)CC1` [Example 39], the figure is 823%; as for `COC1CCC(NC(=O)N2CCC(n3cnc(-c4ccccc4)c3)CC2)CC1` (stereo not shown) [Example 40], 129%; as for `O=C(NC1CCCCC1)N1CCC(n2cnc(-c3ccc4c(c3)CCO4)c2)CC1` [Example 43], 250%.
On to `O=C(NC1CCC(F)(F)CC1)N1CCC(n2cnc(-c3ccc4c(c3)CCO4)c2)CC1` [Example 44], for which the activity at 10 µM was found to be 880%.
On the same count and under the same terms, as for `O=C(NC1CCCCCC1)N1CCC(n2cnc(-c3cccc(F)c3)c2)CC1` [Example 45], the figure is 260%; as for `O=C(NC1CCCCCC1)N1CCC(n2cnc(-c3ccccc3)c2)CC1` [Example 51], 520%.
Still for that read-out and setting: as for `COC1CCC(NC(=O)N2CCC(n3cnc(-c4ccc(C(F)(F)F)cc4)c3)CC2)CC1` (stereo not shown) [Example 52], the figure is 205%.
Still for that read-out and setting: as for `O=C(NC1CCCCC1)N1CCC(n2cnc(-c3cccc(OC(F)F)c3)c2)CC1` [Example 53], the figure is 256%; as for `O=C(NC1CCCCC1)N1CCC(n2cnc(-c3ccc(OC(F)F)cc3)c2)CC1` [Example 54], 371%; as for `CCOc1ccc(-c2cn(C3CCN(C(=O)NC4CCCCC4)CC3)cn2)cc1` [Example 55], 403%.
As for `O=C(NC1CC2CCC1C2)N1CCC(n2cnc(-c3cccc(OC(F)F)c3)c2)CC1` (stereo not shown) [Example 56], the activity at 10 µM is 169%.
With `O=C(NC1CC2CCC1C2)N1CCC(n2cnc(-c3ccc(OC(F)F)cc3)c2)CC1` (stereo not shown) [Example 57], the activity at 10 µM came to 302%.
The same measure, in the same setting: as for `CCOc1ccc(-c2cn(C3CCN(C(=O)NC4CC5CCC4C5)CC3)cn2)cc1` (stereo not shown) [Example 58], the figure is 318%; as for `O=C(NC1CCC(F)(F)CC1)N1CCC(n2cnc(-c3cccc(OC(F)F)c3)c2)CC1` [Example 59], 707%.
The same measure, in the same setting: as for `O=C(NC1CCC(F)(F)CC1)N1CCC(n2cnc(-c3ccc(OC(F)F)cc3)c2)CC1` [Example 60], the figure is 616%; as for `CCOc1ccc(-c2cn(C3CCN(C(=O)NC4CCC(F)(F)CC4)CC3)cn2)cc1` [Example 61], 915%; as for `CC(C)(C)NC(=O)N1CCC(n2cnc(-c3ccc(F)cc3)c2)CC1` [Example 63], 160%.
Same read-out and setting: as for `CC(C)(C)NC(=O)N1CCC(n2cnc(-c3cccc(F)c3)c2)CC1` [Example 64], the figure is 149%; as for `CC(C)(C)NC(=O)N1CCC(n2cnc(-c3ccccc3F)c2)CC1` [Example 67], 317%; as for `COc1cccc(-c2cn(C3CCN(C(=O)NC(C)(C)C)CC3)cn2)c1` [Example 70], 158%.
Regarding `COc1cccc(-c2cn(C3CCN(C(=O)NC4CCCCC4)CC3)cn2)c1` [Example 71], the activity at 10 µM was 422%.
Still for that read-out and setting: as for `COc1ccc(-c2ncn(C3CCN(C(=O)NC4CCCC4)CC3)c2Cl)cc1` [Example 74], the figure is 779%.

Still in this test, the particulars now being: comparison across Tables 18 to 25.
As for `Cc1ccc(-c2cn(C3CCN(C(=O)NC4CCCCC4)CC3)cn2)cc1` [Example 18], the “PAM activity for α7 nAChR (in words)” value is on record as “stronger PAM activity than others”.
In the case of `O=C(NC1CCC(F)(F)CC1)N1CCC(n2cnc(-c3ccc(Cl)cc3)c2)CC1` [Example 22], the “PAM activity for α7 nAChR (in words)” value is reported as “stronger PAM activity than others”.
Same read-out and setting: as for `O=C(NC1CCC(F)(F)CC1)N1CCC(n2cnc(-c3ccc(C(F)(F)F)cc3)c2)CC1` [Example 25], the entry is “stronger PAM activity than others”.
Turning to `COc1cc(-c2cn(C3CCN(C(=O)NC4CCCCC4)CC3)cn2)ccc1Cl` [Example 72], the “PAM activity for α7 nAChR (in words)” value is given as “stronger PAM activity than others”.
On the same count and under the same terms, as for `O=C(NC1CCCCC1)N1CCC(n2cnc(-c3ccccc3)c2Cl)CC1` [Example 73], the entry is “stronger PAM activity than others”.
